Our source for the inhibition and IC50 values is patent publication US20110092476A1, “Bicycloheteroaryl compounds as P2X7 modulators and uses thereof” (Renovis, Inc., priority 2006, published 2011).

pIC50: −log10 of the molar value.

The target of one assay is T1, P2X7 receptor (Homo sapiens, UniProt Q99572).
T1 construct: host or cells: THP-1 cells differentiated with LPS and IFN-γ
T1 sequence (Q99572 1-595): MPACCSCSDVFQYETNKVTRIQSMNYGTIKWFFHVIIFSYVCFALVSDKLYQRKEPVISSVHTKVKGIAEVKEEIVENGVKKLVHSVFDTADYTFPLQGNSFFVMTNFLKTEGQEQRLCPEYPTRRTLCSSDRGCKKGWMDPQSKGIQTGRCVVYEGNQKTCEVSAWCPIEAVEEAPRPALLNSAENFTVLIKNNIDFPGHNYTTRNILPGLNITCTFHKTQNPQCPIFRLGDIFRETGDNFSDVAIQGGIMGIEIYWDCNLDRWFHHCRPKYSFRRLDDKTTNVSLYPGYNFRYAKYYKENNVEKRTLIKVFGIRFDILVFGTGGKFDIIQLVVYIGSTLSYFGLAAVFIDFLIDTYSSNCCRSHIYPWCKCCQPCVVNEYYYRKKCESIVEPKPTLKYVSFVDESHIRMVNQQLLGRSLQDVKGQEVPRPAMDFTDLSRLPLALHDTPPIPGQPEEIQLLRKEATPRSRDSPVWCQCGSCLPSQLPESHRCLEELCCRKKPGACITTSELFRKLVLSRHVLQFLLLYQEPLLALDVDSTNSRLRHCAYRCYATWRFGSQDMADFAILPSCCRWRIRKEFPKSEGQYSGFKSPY
The assay is described as follows: IL-1β release assay in differentiated THP-1 cells stimulated with BzATP (Example 9). Particulars: 0.1 μM compound (symbols *); differentiated THP-1 cells, BzATP 250 uM; read-out: IL-1β % Inhib. @ 0.3 or 0.1 uM. It counts as cell-based. On the procedure:
THP-1 cells (ATCC Cat #285-IF-100) are plated in 96 well plates at a concentration of 200,000 cells per well and allowed to differentiate in RPMI-1640 media (ATCC Cat #30-2001) containing 10% FBS, 100 IU/mL penicillin, 100 ug/mL streptomycin, 100 ng/mL LPS and 100 ng/mL IFN-γ for 16 hours. Following differentiation, the cells are treated for an additional 2 hours in RPMI-1640 media containing 100 IU/mL penicillin, 100 ug/mL streptomycin and fresh LPS at 100 ng/mL. The cells are then pretreated for 30 minutes with the compound of interest at the appropriate concentration in RPMI media containing 100 IU/mL penicillin, 100 ug/mL streptomycin. Following the pretreatment 2′,3′-O-(4-benzoylbenzoyl)-adenosine 5′-triphosphate (Sigma Aldrich Cat #B6396) is added to a final concentration of 250 uM and the cells are incubated for an additional 45 minutes. 30 uL of cell supernatant is then collected and IL-1β levels determined via ELISA (R&D systems Cat. #HSLB50) according to manufacturer's recommendations using the Tecan Safire plate reader. Background adjusted IL-1β levels of drug treated and non-treated cells are used to calculate the percent inhibition.
The compounds set forth in Table 1 were tested for activity in a cellular model as described herein. Specifically, cells were pretreated with differing amounts of the compound under test and released IL-1β determined as in Example 9, above. Measurements were made and IC50 values, presented in Table 2, below, were determined by fitting the data to a four parameter logistic equation using GraphPad Prism software (GraphPad Software, Inc). The equation may be expressed by the following formula:
Y=Bottom+(Top−Bottom)/(1+10̂((Log EC50−X)*HillSlope))
Where X is the logarithm of concentration, Y is the response and Y starts at Bottom and goes to Top with a sigmoid shape.
Turning to `COc1ccc(C(=O)Nc2cccc3c(=O)n(CC(C)O)ccc23)cc1C` (stereo not shown) [Compound 183], the inhibition at 0.1 µM fell in the range of 26 to 50%.
Still for that read-out and setting: then `Cc1ccc(C)c(CC(=O)Nc2cccc3c(=O)n(CC(C)O)ccc23)c1` (stereo not shown) [Compound 130], with 26 to 50%; and `CC(O)Cn1ccc2c(NC(=O)Cc3cccc4ccccc34)cccc2c1=O` (stereo not shown) [Compound 151], with 0 to 25%.
Still for that read-out and setting: then `Cc1cc(C(=O)Nc2cccc3c(=O)n(CC(C)O)ccc23)ccc1F` (stereo not shown) [Compound 175], with 0 to 25%; and `Cc1ccc(C(=O)Nc2cccc3c(=O)n(CC(C)O)ccc23)c(C)c1` (stereo not shown) [Compound 141], with 0 to 25%; and `COc1ccccc1CC(=O)Nc1cccc2c(=O)n(C(C)CO)ccc12` (stereo not shown) [Compound 107], with 0 to 25%.
Same read-out and setting: then `CC(O)Cn1ccc2c(NC(=O)c3cc4ccccc4o3)cccc2c1=O` (stereo not shown) [Compound 164], with 0 to 25%; and `CC(C(=O)Nc1cccc2c(=O)n(C(C)CO)ccc12)c1ccccc1` (stereo not shown) [Compound 103], with 0 to 25%.
Turning to `CC(O)Cn1ccc2c(NC(=O)c3ccc(Cl)cc3Cl)cccc2c1=O` (stereo not shown) [Compound 137], the inhibition at 0.1 µM lay in the range of 0 to 25%.
Same read-out and setting: then `Cc1ccc(C(=O)Nc2cccc3c(=O)n(C(C)CO)ccc23)cc1Cl` (stereo not shown) [Compound 115], with 0 to 25%.
Same read-out and setting: in the case of `CC(C)(O)Cn1ccc2c(NC(=O)c3ccc(-c4ccccc4)o3)cccc2c1=O` [Compound 188] it was 0 to 25%.

Staying with this assay, now noted: 0.1 μM compound; differentiated THP-1 cells, BzATP 250 uM; "*" symbols; read-out: IL-1β % Inhib. @ 0.3 or 0.1 uM.
On to `CC(C)(O)Cn1ccc2c(NC(=O)Cc3ccccc3F)cccc2c1=O` [Compound 207], for which the inhibition at 0.1 µM was 0 to 25%.
Still for that read-out and setting: then `CC(C)(O)Cn1ccc2c(NC(=O)Cc3csc4ccccc34)cccc2c1=O` [Compound 224], with 26 to 50%; and `CC(C)(O)Cn1ccc2c(NC(=O)Cc3cccc4ccccc34)cccc2c1=O` [Compound 205], with 0 to 25%.
On to `CC(C)(O)Cn1ccc2c(NC(=O)c3cc4ccccc4o3)cccc2c1=O` [Compound 217], for which the inhibition at 0.1 µM lay within 0 to 25%.
The same measure, in the same setting: in the case of `CC(C)(O)Cn1ccc2c(NC(=O)c3ccc4c(c3)OCCCO4)cccc2c1=O` [Compound 223] it was 0 to 25%.

The same assay, now with this note: 0.3 μM compound (symbols +); differentiated THP-1 cells, BzATP 250 uM; read-out: IL-1β % Inhib. @ 0.3 or 0.1 uM.
On to `CC(C)Cc1ccc(C(=O)Nc2cccc3c(=O)n(CC4(O)CCCCC4)ccc23)cc1` [Compound 59], for which the inhibition at 0.3 µM fell in the range of 26 to 50%.
Same read-out and setting: in the case of `O=C(Cc1cc(Cl)ccc1C(F)(F)F)Nc1cccc2c(=O)n(CCO)ccc12` [Compound 68] it was 26 to 50%.
Still for that read-out and setting: in the case of `O=C(Cc1cc(C(F)(F)F)cc(C(F)(F)F)c1)Nc1cccc2c(=O)n(CCO)ccc12` [Compound 64] it was 51 to 75%; in that of `O=C(CCc1cccc(Cl)c1)Nc1cccc2c(=O)n(CC3(O)CCCCC3)ccc12` [Compound 58], 26 to 50%; in that of `O=C(Cc1ccc(F)cc1)Nc1cccc2c(=O)n(CCO)ccc12` [Compound 73], 26 to 50%.
As for `Cc1ccc(Cl)cc1C(=O)Nc1cccc2c(=O)n(CC3(O)CCCCC3)ccc12` [Compound 52], the inhibition at 0.3 µM lay within 0 to 25%.
Same read-out and setting: then `O=C(Cc1ccc2c(c1)OCCO2)Nc1cccc2c(=O)n(CCO)ccc12` [Compound 63], with 0 to 25%; and `COc1ccc(C(=O)Nc2cccc3c(=O)n(CC4(O)CCCCC4)ccc23)c(C)c1` [Compound 56], with 0 to 25%; and `O=C(Nc1cccc2c(=O)n(CCO)ccc12)c1ccccc1` [Compound 1], with 0 to 25%.
Still for that read-out and setting: in the case of `O=C(Nc1cccc2c(=O)n(CC3(O)CCCCC3)ccc12)c1cc2cc(Cl)ccc2o1` [Compound 54] it was 26 to 50%.

The assay is the same for the next values; noted with them: 0.3 μM compound; differentiated THP-1 cells, BzATP 250 uM; "+" symbols; read-out: IL-1β % Inhib. @ 0.3 or 0.1 uM.
On to `C[C@H](C(N)=O)n1ccc2c(NC(=O)Cc3ccccn3)cccc2c1=O` [Compound 309], for which the inhibition at 0.3 µM was 0 to 25%.
On the same count and under the same terms, in the case of `C[C@H](C(N)=O)n1ccc2c(NC(=O)Cc3cc(F)c(F)cc3F)cccc2c1=O` [Compound 305] it was over 76%; in that of `C[C@H](C(=O)Nc1cccc2c(=O)n([C@@H](C)CO)ccc12)c1ccc(Cl)c(Cl)c1` [Compound 326], 51 to 75%.
On to `C[C@@H](C(N)=O)n1ccc2c(NC(=O)Cc3ccc(F)c(Cl)c3)cccc2c1=O` [Compound 346], for which the inhibition at 0.3 µM is over 76%.
Turning to `CC(C)[C@H](CO)n1ccc2c(NC(=O)[C@@H](C)c3ccc(Cl)cc3)cccc2c1=O` [Compound 274], the inhibition at 0.3 µM is over 76%.
The same measure, in the same setting: in the case of `CC(C(=O)Nc1cccc2c(=O)n([C@H](CO)C(N)=O)ccc12)c1ccc(Cl)cc1` (stereo partly drawn) [Compound 252, (R)-2-{5-[2-(4-Chloro-phenyl)-propionylamino]-1-oxo-1H-isoquinolin-2-yl}-3-hydroxy-propionamide] it was 51 to 75%.
Still for that read-out and setting: in the case of `O=C(Cc1ccc(Cl)c(F)c1)Nc1cccc2c(=O)n(CCO)ccc12` [Compound 354] it was over 76%.
The same measure, in the same setting: then `CC(C)[C@H](CO)n1ccc2c(NC(=O)[C@H](C)c3ccc(Cl)cc3)cccc2c1=O` [Compound 273, (R)-2-(4-Chloro-phenyl)-N—[(R)-2-(1-hydroxymethyl-2-methyl-propyl)-1-oxo-1,2-dihydro-isoquinolin-5-yl]-propionamide], with over 76%; and `C[C@H](C(N)=O)n1ccc2c(NC(=O)Cc3cccc(C(F)(F)F)c3)cccc2c1=O` [Compound 297], with over 76%.
On to `CC(C)C[C@H](CO)n1ccc2c(NC(=O)Cc3ccc(Cl)c(C(F)(F)F)c3)cccc2c1=O` [Compound 280], for which the inhibition at 0.3 µM is over 76%.
The same measure, in the same setting: then `C[C@H](C(N)=O)n1ccc2c(NC(=O)Cc3ccc(Cl)cc3F)c(Cl)ccc2c1=O` [Compound 343], with 26 to 50%.
On the same count and under the same terms, then `O=C(Cc1ccc(Cl)c(C(F)(F)F)c1)Nc1cccc2c(=O)n(CC3CCNCC3)ccc12` [Compound 257, 2-(4-Chloro-3-trifluoromethyl-phenyl)-N-(1-oxo-2-piperidin-4-ylmethyl-1,2-dihydro-isoquinolin-5-yl)-acetamide], with over 76%; and `CC(C)(CO)n1ccc2c(NC(=O)Cc3ccc(F)c(C(F)(F)F)c3)cccc2c1=O` [Compound 367], with over 76%.
In the case of `C[C@H](C(=O)Nc1c(Cl)ccc2c(=O)n([C@H](C)C(N)=O)ccc12)c1ccc(Cl)cc1` [Compound 340], the inhibition at 0.3 µM is over 76%.
Take `COc1ccc2c(=O)n([C@H](C)C(N)=O)ccc2c1NC(=O)Cc1ccc(C(F)(F)F)cc1` [Compound 344, (R)-2-{6-Methoxy-1-oxo-5-[2-(4-trifluoromethyl-phenyl)-acetylamino]-1H-isoquinolin-2-yl}-propionamide]: the inhibition at 0.3 µM is over 76%.
On the same count and under the same terms, in the case of `O=C(Cc1ccc(C(F)(F)F)cc1C(F)(F)F)Nc1cccc2c(=O)n(CCO)ccc12` [Compound 230] it was over 76%; in that of `C[C@H](C(N)=O)n1ccc2c(NC(=O)Cc3ccc(Cl)nc3)cccc2c1=O` [Compound 312], 0 to 25%.
The same measure, in the same setting: then `C[C@H](C(=O)Nc1cccc2c(=O)n([C@H](C)C(=O)NC3CC3)ccc12)c1ccc(Cl)cc1` [Compound 308, (R)-2-{5-[(S)-2-(4-Chloro-phenyl)-propionylamino]-1-oxo-1H-isoquinolin-2-yl}-N-cyclopropyl-propionamide], with 51 to 75%; and `CC(C(=O)Nc1cccc2c(=O)n(CCO)ccc12)c1ccc(Cl)c(C(F)(F)F)c1` (stereo not shown) [Compound 251], with over 76%.

Still in this assay, the particulars now being: THP-1 cells, BzATP 250 uM, IL-1β by ELISA.
In the case of `CC(C)[C@H](CO)n1ccc2c(NC(=O)[C@@H](C)c3ccc(Cl)cc3)cccc2c1=O` [Compound 274], the negative-log IC50 (pIC50) was 7.84.
